Assays:
Tubulin (Bos taurus) = Tubulin (Bos taurus) (UniProt Q6B856+Q862L2+Q862F3); experiment: Inhibition of colchicine binding to tubulin was evaluated only when polymerization IC50 <=1.0 uM; format: protein assay
OVCAR-3 = experiment: Tested for in vitro tumor cell growth inhibition of ovarian cancer cell line OVCAR-3; format: functional; conditions: Homo sapiens
KM-20L2 = experiment: Tested for in vitro tumor cell growth inhibition of colon cancer cell line […]; format: functional; conditions: Homo sapiens
HCT-116 = experiment: Tested for in vitro tumor cell growth inhibition of colon cancer cell line HCT116; format: functional; conditions: Homo sapiens
NCI-H226 = experiment: Tested for in vitro tumor cell growth inhibition of non-small cell lung cancer cell line NCI-H226; format: functional; conditions: Homo sapiens
DU-145 = experiment: Tested for in vitro tumor cell growth inhibition of prostate cancer cell line DU-145; format: functional; conditions: Homo sapiens
Tubulin = Tubulin (Bos taurus, UniProt Q6B856+Q862L2+Q862F3); experiment: Inhibition of bovine tubulin polymerization; format: functional
SK-MEL-5 = experiment: Tested for in vitro tumor cell growth inhibition of melanoma cell line SK-Mel-5; format: functional; conditions: Homo sapiens
OVCAR-4 = experiment: Tested for in vitro tumor cell growth inhibition of ovarian cancer cell line OVCAR-4; format: functional; conditions: Homo sapiens
SF-295 = experiment: Tested for in vitro tumor cell growth inhibition of CNS tumor cell line SF-295; format: functional; conditions: Homo sapiens
SF-268 = experiment: Tested for in vitro tumor cell growth inhibition of CNS tumor cell line SF-268; format: functional; conditions: Homo sapiens
MDA-N = experiment: Tested for in vitro tumor cell growth inhibition of breast cancer cell line MDA-N; format: functional; conditions: Homo sapiens
K562 = experiment: Tested for in vitro tumor cell growth inhibition of leukemia cell line K-562; format: functional; conditions: Homo sapiens
RXF 393 = experiment: Tested for in vitro tumor cell growth inhibition of renal cancer cell line RXF-393; format: functional; conditions: Homo sapiens

Compound | inhibition (Tubulin (Bos taurus)) | GI50 (OVCAR-3) | GI50 (KM-20L2) | GI50 (HCT-116) | GI50 (NCI-H226) | GI50 (DU-145) | IC50 (Tubulin) | GI50 (SK-MEL-5) | GI50 (OVCAR-4) | GI50 (SF-295) | GI50 (SF-268) | GI50 (MDA-N) | GI50 (K562) | GI50 (RXF 393)
COc1cccc(-c2cc(O)c3cc(N4CCOCC4)ccc3n2)c1 | 43% | 19.9 nM | 33.9 nM | 26.9 nM | 33.9 nM | 43.6 nM | 360 nM | 35.5 nM | 6310 nM | 49 nM | 53.7 nM | 8.32 nM | 24.6 nM | 
COc1cccc(-c2cc(O)c3cc(Cl)ccc3n2)c1 | 16% |  |  |  |  |  | 700 nM |  |  |  |  |  |  | 
COc1cccc(-c2cc(O)c3cc(N)ccc3n2)c1 |  |  | 3470 nM |  |  |  | 8700 nM |  |  |  |  |  |  | 
Nc1ccc2nc(-c3cccc(Cl)c3)cc(O)c2c1 |  |  | 3160 nM |  |  |  | 6100 nM |  | > 100000 nM |  |  |  |  | 
CC(=O)Nc1ccc2nc(-c3cccc(F)c3)cc(O)c2c1 |  |  |  |  |  |  |  |  |  | 38900 nM | 25700 nM |  |  | 
COc1cccc(-c2cc(O)c3cc4c(cc3n2)OCO4)c1 | 39% |  |  |  |  |  | 570 nM |  |  |  |  |  |  | 
CCOc1cccc(-c2cc(O)c3cc4c(cc3n2)OCO4)c1 | 40% | 166 nM | 182 nM | 174 nM | 324 nM | 251 nM | 470 nM | 191 nM |  | 64.6 nM | 269 nM | 17.8 nM | 44.7 nM | 275 nM
Oc1cc(-c2cccc(Cl)c2)nc2cc3c(cc12)OCO3 | 45% |  | 269 nM |  |  |  | 370 nM | 209 nM | > 75900 nM |  |  |  |  | 
COc1cccc(-c2cc(O)c3cc(NC(C)=O)ccc3n2)c1 |  |  |  |  |  |  | 2100 nM |  |  |  | 5500 nM |  |  | 
COc1cccc(-c2cc(O)c3cc(N4CCN(C)CC4)ccc3n2)c1 |  |  | 1510 nM | 437 nM | 1510 nM | 2510 nM | 14000 nM | 912 nM | > 10000 nM | 1820 nM | 1860 nM | 200 nM | 537 nM | 457 nM
CC(=O)Nc1ccc2nc(-c3cccc(Cl)c3)cc(O)c2c1 |  |  |  |  |  |  | 2300 nM |  | > 100000 nM |  |  |  |  | 
Nc1cccc(-c2cc(O)c3cc4c(cc3n2)OCO4)c1 | 16% |  | 708 nM | 479 nM | 2190 nM |  | 730 nM | 933 nM | 38900 nM | 2400 nM | 759 nM |  | 891 nM | 603 nM
COc1cccc(-c2cc(O)c3cc(N(C)C)ccc3n2)c1 | 14% | 15.1 nM | 4.57 nM |  | 44.7 nM | 34.7 nM | 380 nM | 25.7 nM | 5500 nM | 15.5 nM | 43.6 nM | 1.7 nM | 8.91 nM | 18.6 nM
CN(C)c1cccc(-c2cc(O)c3cc4c(cc3n2)OCO4)c1 | 29% |  |  |  |  |  | 700 nM |  |  |  |  |  |  | 
